One data set concerns 3T3-L1 adipocytes. The data set is described as follows: Insulin-stimulated glucose uptake assay. In kind it is cell-based. To be noted: compared with Compound A (racemate). The method, then:
Briefly, glucose uptake is measured in 3T3-L1 adipocytes cultured in 96-well plates. On day 6 of differentiation (according to the MDI-protocol, see above) cells are treated with either vehicle, positive control (Avandia) or test compound. 48 hours later the ability of adipocytes to take up glucose in response to insulin is determined. Cells are washed with serum-free DMEM+antibiotics and incubated in the same medium at 37° C. for 2 hours. Cells are then washed and subsequently incubated in Krebs-Ringer-Hepes (KRP) buffer for 30 min at 37° C. Hereafter, insulin is added to the cells to a final concentration of 10 nM and cells are then incubated at 37° C. for 15 min. Glucose uptake is initiated by the addition of KRP buffer supplemented with 10 mM [^14C] 2-deoxy-D-glucose. After further incubation for 15 min at 37° C., glucose uptake is terminated by addition of a large surplus of cold glucose and three rapid washes of ice-cold PBS. Cells are then lysed and ^14C-radioactivity determined by scintillation counting.

In data set [1] the target is T1, Human Recombinant (E. coli) PPARgamma (Homo sapiens, UniProt P37231).
T1 construct: host or cells: E. coli
T1 sequence (P37231 1-505): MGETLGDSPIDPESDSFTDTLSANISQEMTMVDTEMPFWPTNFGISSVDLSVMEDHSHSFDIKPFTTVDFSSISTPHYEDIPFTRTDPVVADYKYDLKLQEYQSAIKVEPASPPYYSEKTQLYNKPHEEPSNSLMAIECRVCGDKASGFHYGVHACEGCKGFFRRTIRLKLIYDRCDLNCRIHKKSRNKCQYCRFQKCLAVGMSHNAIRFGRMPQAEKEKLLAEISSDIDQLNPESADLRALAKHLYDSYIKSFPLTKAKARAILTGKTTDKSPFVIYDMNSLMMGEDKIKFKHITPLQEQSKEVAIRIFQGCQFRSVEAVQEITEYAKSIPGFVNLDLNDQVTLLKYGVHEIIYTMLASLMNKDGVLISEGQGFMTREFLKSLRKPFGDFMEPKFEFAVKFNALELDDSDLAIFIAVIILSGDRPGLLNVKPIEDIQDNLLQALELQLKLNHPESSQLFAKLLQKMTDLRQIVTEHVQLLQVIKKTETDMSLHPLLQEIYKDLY
Put plainly: PPAR gamma binding assay. The method, then:
Incubation: 120 min. at 4° C.
The results are expressed as a percent of control specific binding ((measured specific binding/control specific binding)×100) obtained in the presence of the test compounds. The IC50 values (concentration causing a half-maximal inhibition of control specific binding) and Hill coefficients (nil) were determined by non-linear regression analysis of the competition curves generated with mean replicate values using Hill equation curve fitting (Y=D+[(A−D)/(1+(C/C50)nH)], where Y=specific binding, D=minimum specific binding, A=maximum specific binding, C=compound concentration, C50=IC50, and nH=slope factor). This analysis was performed using a software developed at Cerep (Hill software) and validated by comparison with data generated by the commercial software SigmaPlot 4.0 for Windows® (© 1997 by SPSS Inc.). The inhibition constants (Ki) were calculated using the Cheng Prusoff equation (Ki=IC50/(1+(L/KD)), where L=concentration of radioligand in the assay, and KD=affinity of the radioligand for the receptor).

The next data set has as its system KKA^y mice. Put plainly: In vivo effect on serum glucose and other parameters in KKA^y mice. To be noted: dose not given. The method, then: 52 male KKA^y mice are obtained commercially (e.g., from Clea Japan) at an age of 6 weeks and put on a high fat diet upon arrival. Individual mice were housed in IVC Type II cages during both the acclimatization and the experimental phase. Both food (high fat diet) and water are supplied ad libitum.
1 animal per cage. […] Lights on at 06:00 a.m. Temperature: 21-25° C. Relative humidity target range: 55-60%.
Mice were randomized into treatment groups according to their 4-h fasting blood glucose.
4 hours after the last administration, non-fasting conditions.
Gamma irradiated high fat diet is commercially available (e.g., Research Diets, Inc. New Brunswick, N.J. (Product # D12266BI)).
Blood is collected into heparin containing glass capillaries which are subsequently centrifuged in a “Haematokrit 24” centrifuge (Hettich) at 15′200×g for 10 minutes at room temperature to obtain the hematocrit value.
The following serum parameters are determined on a COBAS INTEGRA 800 auto analyzer (Roche Diagnostics, Switzerland) using the reagents and protocols provided by the supplier.
All measurements are made on Day 14 of administration, except for the food intake and body weight measurements that are made on Day 12.

A further data set concerns the target T2, Thromboxane synthase (Homo sapiens, UniProt P24557).
T2 construct: Human Platelet Thromboxane Synthase Assay; from tissue; host or cells: human platelets
T2 sequence (P24557 1-533): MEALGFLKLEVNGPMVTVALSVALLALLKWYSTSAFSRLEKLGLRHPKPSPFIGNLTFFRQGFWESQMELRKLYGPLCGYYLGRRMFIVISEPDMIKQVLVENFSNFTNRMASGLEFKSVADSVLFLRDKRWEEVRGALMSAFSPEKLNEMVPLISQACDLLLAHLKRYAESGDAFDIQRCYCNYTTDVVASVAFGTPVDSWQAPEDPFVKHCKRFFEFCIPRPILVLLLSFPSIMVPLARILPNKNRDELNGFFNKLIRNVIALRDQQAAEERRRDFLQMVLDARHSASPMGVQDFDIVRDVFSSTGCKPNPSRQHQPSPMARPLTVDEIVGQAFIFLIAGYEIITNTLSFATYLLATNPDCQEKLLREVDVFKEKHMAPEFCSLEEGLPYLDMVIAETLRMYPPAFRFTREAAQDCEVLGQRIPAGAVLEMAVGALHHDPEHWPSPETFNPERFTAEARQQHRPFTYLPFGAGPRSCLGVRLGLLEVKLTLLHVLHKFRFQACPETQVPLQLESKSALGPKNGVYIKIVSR
Put plainly: Human platelet thromboxane synthase assay. In kind it is biochemical. The method, then:
The compounds were tested for thromboxane synthase inhibition essentially as described by Borsch-Haubold A G, Pasquet S, Watson S P. (1998). Direct inhibition of cyclooxygenase-1 and -2 by the kinase inhibitors SB 203580 and PD 98059. […] 1. Imidazole derivatives. J Med. Chem. (10):1139-48 according to the following:
Pre-incubation time, temp: 15 minutes at 25° C. Incubation time, temp: 3 minutes at 25° C.
Incubation Buffer: 10 mM Tris-HCl, pH 7.4
Quantification Method: ETA quantification of TxB2

`O=C(O)CC/C=C\CC1COC(c2coc3ccc(Cl)cc3c2=O)OC1c1ccccc1O` (racemic) [Compound 3, (Z)-6-(2-(6-Chloro-4-oxo-4H-chromen-3-yl)-4-(2-hydroxyphenyl)-1,3-dioxan-5-yl)hex-4-enoic acid]: in the data set with 3T3-L1 adipocytes, the “Effect in glucose uptake assays (in words)” value is “effect similar if not better to Compound A (racemate)”. Moreover, the Ki in data set [1] ([3H]-rosiglitazone 10 nM, Cheng Prusoff, read-out: PPARγ binding Ki) came out at 2700 nM. Besides, the IC50 in data set [1] ([3H]-rosiglitazone 10 nM, read-out: PPARγ binding IC50) worked out at 7400 nM. For the same compound, the “Binding to PPARgamma (in words)” value in data set [1] (compared with Compound A) is recorded as “binds to PPARgamma at least as well as Compound A”. Besides, in the data set on KKA^y mice (14-day oral gavage BID), the FFA entry is reported as “decreases the FFA”, the HbA1c levels entry is “decreased” and the Heart weight result was “has no effect on heart weight”. The Body weight result with KKA^y mice (oral gavage BID) is reported as “do not alter body weight”. On Thromboxane synthase, the midpoint of inhibition, the IC50, lay at 56 nM and the “Inhibition of thromboxane synthase (in words)” value is listed as “potent inhibitors of thromboxane synthase”. Besides, the inhibition at 5 µM against Thromboxane synthase (at 5 μM) worked out at 94%.

As usually defined, the Ki is the dissociation constant of the complex between target and ligand, obtained from inhibition or displacement. Broadly, the IC50 is the concentration at which inhibition is half-maximal. One may read the inhibition as how much of the control response was suppressed. Lower therefore signals a response near the control.

For the origin of these results see patent US20130197030A1, “Substituted 1,3-Dioxanes and There Uses” (Evolva Sa, priority 2007, published 2013).
